{"source": "patent US20120202891A1", "about": "“Cannabinoid-Containing Compositions and Methods for Their Use” (UNIVERSITY OF KENTUCKY RESEARCH FOUNDATION, priority 2009, published 2012)", "key": {"[1]": {"settings": "hairless guinea pigs, 1% hydroalcoholic CBD gel, up to 8 h post application; cited from earlier work"}, "[2]": {"system": "CFA mono-arthritic knee joints in Sprague-Dawley rats", "test": "Knee joint circumference in CFA-induced monoarthritis", "assay_type": "in vivo, rat", "settings": "Post-CBD, four consecutive days (day 4), mean ± SD"}, "[3]": {"system": "normal rats", "test": "Paw withdrawal latency (PWL) test, normal rats", "assay_type": "in vivo, rat", "settings": "any CBD dose (0.6, 3.1, 6.2 mg/d)", "procedure": "Secondary thermal hyperalgesia was assessed with the paw withdrawal latency (PWL) test (Hargreaves et al. (1988) Pain 32: 77-88). PWLs were measured in response to a radiant heat source shone on one hind paw of the animals from beneath a glass top table. A shortened PWL response in animals with knee joint inflammation was indicative of secondary thermal hyperalgesia. Animals were placed in separate plastic cubicles (4×4×10 in) on a glass top table (2 mm thickness of glass) and allowed to adapt to their new environment for 20-30 min before testing. A small movable metal box that focused a high-intensity light beam through an aperture (0.5 cm×0.5 cm) was attached to an on/off switch and a digital timer. […] At that time, the light is switched off and the number of seconds on the digital timer recorded as the PWL (sec). […] A mean of the 5 trials was calculated for each animal. […]\n(§1) Baseline parameters (body weight, knee joint temperature, and knee joint circumference) were obtained before the knee injection of rats with CFA. […] Exploratory activity was monitored prior to initial gel application and on the third day post gel application (after 6 h). […] Blood samples were obtained for CBD plasma quantification, and tissues (knee joints, dorsal root ganglia, spinal cord, brain) were collected after perfusion. […]"}, "[4]": {"system": "normal (non-CFA) rats", "test": "Open field exploratory behavioral activity", "assay_type": "in vivo, rat", "settings": "0.6 to 62.3 mg/d, pre-dose versus post-dose and among dose groups", "procedure": "Exploratory behavioral activity of the rats was monitored using the Flexfield Animal Activity System (San Diego Instruments; San Diego, Calif.) with a Photobeam Activity System software coupled to a computer according to previously published methods by Zhang et al., (2004) Pharmacol Biochem Behav 77: 145-153. Briefly, six main parameters were recorded: rearing events and rearing time, active time and resting time, total activity (i.e. number of photobeams disturbed in the x-y-z planes while the rat was moving around in the box or involved in stationary movement such as grooming), and distance traveled. Activity testing was conducted in an isolated, temperature controlled area at similar times daily in order to provide consistent results.\nas §1, with “CFA. PWL test and exploratory activity testing were also conducted prior to CFA injection. Rats were anesthetized with a short term anesthetic and the left knee joint cavity was injected with CFA for induction of mono-arthritis.” for “CFA.”"}, "[5]": {"settings": "cited from earlier work"}, "[6]": {"test": "Plasma CBD concentration after topical gel application (LC/MS)", "assay_type": "in vivo, rat", "settings": "plasma concentration versus dose, 0.6, 3.1 and 6.2 mg/d", "procedure": "Baseline parameters (body weight, knee joint temperature, and knee joint circumference) were obtained before the knee injection of rats with CFA. PWL test and exploratory activity testing were also conducted prior to CFA injection. Rats were anesthetized with a short term anesthetic and the left knee joint cavity was injected with CFA for induction of mono-arthritis. On day 3, the back of each animal was shaved. […] Rats received daily treatments for four consecutive days of either vehicle gel, or CBD gel. Gel was applied to the skin in a templated region on the dorsal surface of the rat and rubbed into the skin for 30 sec to ensure complete coverage. The nitrile template was used to ensure specific area reproducibility. […] Exploratory activity was monitored prior to initial gel application and on the third day post gel application (after 6 h). […] Blood samples were obtained for CBD plasma quantification, and tissues (knee joints, dorsal root ganglia, spinal cord, brain) were collected after perfusion. […]\nThe LC/MS system used to analyze samples was comprised of a Waters Alliance 2695 pump and autosampler, a Micromass™ ZQ detector, and 996 photodiode array detector with MassLynx™ software (Waters Corp., Milford, Mass.). […] The ZQ detector was used with an electrospray ionization (ESI) probe set for single ion monitoring (SIM) for cannabidiol quantification. […]"}, "[7]": {"system": "rats with CFA induced mono-arthritis", "test": "Secondary thermal hyperalgesia, paw withdrawal latency (PWL) test, CFA rats", "assay_type": "in vivo, rat"}, "[8]": {"system": "CFA mono-arthritic knee joints in Sprague-Dawley rats", "test": "Knee joint temperature in CFA-induced monoarthritis", "assay_type": "in vivo, rat", "settings": "for Knee joint temperature: Post-CBD, four consecutive days (day 4), mean ± SD"}, "[9]": {"target": "CB2 (Homo sapiens, UniProt P34972)", "sequence (P34972 whole entry, species assumed)": "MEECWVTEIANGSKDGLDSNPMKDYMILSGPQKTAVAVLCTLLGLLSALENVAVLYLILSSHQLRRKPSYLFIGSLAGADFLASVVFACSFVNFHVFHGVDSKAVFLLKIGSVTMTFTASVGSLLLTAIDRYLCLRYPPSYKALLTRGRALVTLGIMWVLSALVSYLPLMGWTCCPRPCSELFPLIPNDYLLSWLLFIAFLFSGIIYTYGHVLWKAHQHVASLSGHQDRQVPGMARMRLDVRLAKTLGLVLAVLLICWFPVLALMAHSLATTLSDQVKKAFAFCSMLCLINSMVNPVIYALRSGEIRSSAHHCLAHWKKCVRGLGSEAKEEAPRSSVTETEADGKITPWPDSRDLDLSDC", "settings": "cited from earlier work"}}, "note": "“And” between values parts separate entries of the source, which are not always exact repeats. Identical values can stand only once. “Also recorded” adds a separate entry of the source. Like-named read-outs stand apart in the source and are kept apart here. Marks after values point to notes of the source that are not given here."}
{"compound": "C=C(C)C1CCC(C)=CC1c1c(O)cc(CCCCC)cc1O", "note": "(stereo not drawn) [CBD, 2-[3-methyl-6-(1-methylethenyl)-2-cyclohexen-1-yl]-5-pentyl-1,3-benzenedi-ol]", "values": [{"measurement": "Residual drug remaining on the skin surface", "setting": "[1]", "value": "approximately 15%"}, {"measurement": "Knee joint circumference", "setting": "[2]; 0.6 mg/d CBD gel on skin", "value": "7.0 ± 0.3^b cm"}, {"measurement": "Knee joint circumference", "setting": "[2]; 3.1 mg/d CBD gel on skin", "value": "7.1 ± 0.3^b cm"}, {"measurement": "Knee joint circumference", "setting": "[2]; 6.2 mg/d CBD gel on skin", "value": "6.6±0.2 cm and 6.6 ± 0.2^b* cm"}, {"measurement": "Knee joint circumference", "setting": "[2]; 62.3 mg/d CBD gel on skin", "value": "6.6±0.1 cm and 6.6 ± 0.1^a* cm"}, {"measurement": "Effect on PWL in normal animals", "setting": "[3]", "value": "no effect; also recorded: not affected"}, {"measurement": "Exploratory activities, six parameters (rearing events, rearing time, total beams broken, distance traveled, active time, resting time), differences", "setting": "[4]", "value": "No significant (p>0.05) differences; also recorded: no differences in activity measurements"}, {"measurement": "Cmax plasma concentration", "setting": "[5]; hairless guinea pigs dosed once with 6.2 mg/d CBD gel, n=3", "value": "45.8 ± 8.4", "unit": "ng/mL"}, {"measurement": "Cmax plasma concentration", "setting": "[5]; hairless guinea pigs, 6.2 mg/d CBD gel, after 3 consecutive days of gel application, n=5", "value": "85.6 ± 48.4", "unit": "ng/mL"}, {"measurement": "Time out to which CBD plasma concentrations were detected", "setting": "[5]; hairless guinea pigs, after a single initial gel application", "value": 120, "unit": "h"}, {"measurement": "Tmax", "setting": "[5]; hairless guinea pigs, multiple applications", "value": "40.0 ± 14.5", "unit": "h"}, {"measurement": "Tmax", "setting": "[5]; hairless guinea pigs, single application", "value": "6.7 ± 2.1", "unit": "h"}, {"measurement": "Linear pharmacokinetic correlation, slope", "setting": "[6]", "value": 1.0}, {"measurement": "PWL scores, improvement", "setting": "[7]; 0.6 mg/d and 3.1 mg/d, day 4", "value": "did not have improved PWL scores"}, {"measurement": "PWL, improvement compared to CFA rats receiving vehicle gel", "setting": "[7]; 6.2 mg/d, 4 h (d 1) post CBD dosing, p<0.05", "value": "improvement"}, {"measurement": "Differences in knee joint temperature among the treatment groups", "setting": "[8]; 0.6 to 62.3 mg/d CBD versus vehicle gel, p>0.05", "value": "no significant differences"}, {"measurement": "Knee joint temperature", "setting": "[8]; 0.6 mg/d", "value": "31.2 ± 0.7^b ° C."}, {"measurement": "Knee joint temperature", "setting": "[8]; 3.1 mg/d", "value": "30.6 ± 0.6^b ° C."}, {"measurement": "Knee joint temperature", "setting": "[8]; 6.2 mg/d", "value": "31.7 ± 2.1^b ° C."}, {"measurement": "Knee joint temperature", "setting": "[8]; 62.3 mg/d", "value": "30.2 ± 0.9^a ° C."}, {"measurement": "Binding affinity for CB2", "setting": "[9]", "value": "little binding affinity"}]}
